Literature values in patent US20260115111A1, “METHOD FOR IMPROVING THE TACTILE SENSATION OF DYED KERATINOUS MATERIAL, ESPECIALLY HUMAN HAIR” (Henkel AG & Co. KGaA, priority 2019, published 2026).

settings: 25° C.

| Structure (SMILES) | solubility in water |
| --- | --- |
| CCN(Cc1cccc(S(=O)(=O)[O-])c1)c1ccc(C(=C2C=CC(=[N+](CC)Cc3cccc(S(=O)(=O)[O-])c3)C=C2)c2ccccc2S(=O)(=O)[O-])cc1.[Na+].[Na+] [Acid Blue 9] | more than 20 wt. % |
| O=S(=O)([O-])c1ccc(N=Nc2c(O)ccc3ccccc23)cc1.[Na+] [Acid Orange 7, sodium salt of 4-[(2-hydroxy-1-naphthyl)azo]benzene sulphonate] | more than 7 g/L |
| Nc1cc(S(=O)(=O)[O-])cc2cc(S(=O)(=O)[O-])c(N=Nc3ccccc3)c(O)c12.[Na+].[Na+] [Acid Red 33, diantrium salt of 5-amino-4-hydroxy-3-(phenylazo)-naphthalene-2,7-disulphonate] | 2500 µg/mL |
| O=C([O-])c1c(Cl)c(Cl)c(Cl)c(Cl)c1-c1c2c(Br)cc(=O)c(Br)c-2oc2c(Br)c(O)cc(Br)c12.O=C([O-])c1c(Cl)c(Cl)c(Cl)c(Cl)c1-c1c2c(Br)cc(=O)c(Br)c-2oc2c(Br)c(O)cc(Br)c12.[Na+].[Na+] [Acid Red 92, disodium salt of 3,4,5,6-tetrachloro-2-(1,4,5,8-tetrabromo-6-hydroxy-3-oxoxanthen-9-yl)benzoic acid] | greater than 10 g/L |
| O=C([O-])C1=NN(c2ccc(S(=O)(=O)[O-])cc2)C(=O)C1N=Nc1ccc(S(=O)(=O)[O-])cc1.[Na+].[Na+].[Na+] (centres unmarked) [Acid Yellow 23, trisodium salt of 4,5-dihydro-5-oxo-1-(4-sulfophenyl)-4-((4-sulfophenyl)azo)-1H-pyrazole-3-carboxylic acid] | highly soluble |
